Values of other authors, collected in US6284774A, “4-Benzyl piperidine alkylsulfoxide heterocycles and their use as subtype-selective NMDA receptor antagonists” (priority 2000, dated 2001).

Key:
[1] = variety of animal models highly predictive of human anxiety; cited from earlier work
[2] = tested on: smooth muscle of the airway; conditions: cited from earlier work

C[C@]12N[C@H](Cc3ccccc31)c1ccccc12 [MK801]
effectiveness in animal models of anxiety [1]: effective in a variety of animal models of anxiety

CNC1(c2ccccc2Cl)CCCCC1=O (centres unmarked) [ketamine]
ability to relax the smooth muscle of the airway [2]: relax the smooth muscle of the airway
